Molecular target: Plasmin (Homo sapiens)
Assay: Inhibitory activity of compound against Plasmin (HP)

Row | SMILES | Ki
1 | CC(C)(C)[C@@H](NC(=O)OC12CC3CC(CC(C3)C1)C2)C(=O)N[C@@H](Cc1ccccc1)C(=O)NC(Cc1ccc(NC(=N)N)cc1)C(=O)C(F)(F)F (stereo partly drawn) [((R)-2,2-Dimethyl-1-{(S)-2-phenyl-1-[3,3,3-trifluoro-1-(4-guanidino-benzyl)-2-oxo-propylcarbamoyl]-ethylcarbamoyl}-propyl)-carbamic acid adamantan-1-yl ester] | 120 nM
2 | N=C(N)Nc1ccc(CC(NC(=O)[C@H](Cc2ccccc2)NC(=O)[C@@H](CCc2ccccc2)NC(=O)OC23CC4CC(CC(C4)C2)C3)C(=O)C(F)(F)F)cc1 (stereo partly drawn) [((R)-3-Phenyl-1-{(S)-2-phenyl-1-[3,3,3-trifluoro-1-(4-guanidino-benzyl)-2-oxo-propylcarbamoyl]-ethylcarbamoyl}-propyl)-carbamic acid adamantan-1-yl ester] | 40 nM
3 | CC(C)(C)[C@@H](NC(=O)N1CCOCC1)C(=O)NCC(=O)NC(Cc1ccc(NC(=N)N)cc1)C(=O)C(F)(F)F (stereo partly drawn) [Morpholine-4-carboxylic acid [(R)-2,2-dimethyl-1-({[3,3,3-trifluoro-1-(4-guanidino-benzyl)-2-oxo-propylcarbamoyl]-methyl}-carbamoyl)-propyl]-amide] | 110000 nM
4 | CC(C)(C)OC(=O)N[C@H](Cc1ccccc1)C(=O)N[C@H](C(=O)NC(Cc1ccc(NC(=N)N)cc1)C(=O)C(F)(F)F)c1ccc2ccccc2c1 (stereo partly drawn) [[(R)-1-({(S)-Naphthalen-2-yl-[3,3,3-trifluoro-1-(4-guanidino-benzyl)-2-oxo-propylcarbamoyl]-methyl}-carbamoyl)-2-phenyl-ethyl]-carbamic acid tert-butyl ester] | 60 nM
